Experimental data reported in patent US20100144865A1, “COMPOUND FEED FOR AQUACULTURE” (priority 2007, published 2010).

Tested on: Atlantic salmon (Salmo salar L.) hepatocytes
Assay type: in vitro ADME
Method: The isolated hepatocytes were incubated with 35 nmol, 2.5 μCi of [1-^14C] 18:3 (n-3) as well as non radiolabeled 18:3 (n-3), final concentration 7 μM, in 5 ml of L 15 culture medium without FBS. The radio labeled FA was added to the medium as potassium salt bound to BSA. To each experimental flask (4 radiolabeled and 7 with non-radiolabeled 18:3 (n-3)), DMSO (7.4 μl/5 ml) with sesamin (final concentration 0.05 mM) was added and to each control flasks (4 radiolabeled and 7 with non-radiolabeled 18:3 (n-3)), only DMSO (7.4 μl/5 ml) was added, in another two flasks sesamin but no FA was added. The cells were incubated at 12° C. for 48 h. The radiolabeled experiment flasks with and without sesamin (4 each) were washed and harvested in PBS for further analysis of β-oxidation and radiolabeled lipid classes and radiolabeled cellular fatty acids. The cells in the two flasks with no FA substrate added were denaturated after the incubation and thereafter added radiolabeled substrate in order to be used as a negative control for the ASP measurements and HPLC analyses. In the non-labeled study, control and sesamin flask (4 each) were washed in PBS prior to isolation of mRNA according to the protocol RNeasy® Mini Kit for gene expression analysis and 3 flasks of each control and sesamin were washed and harvested in PSB for fatty acid and sesamin analysis.

Q: With `c1cc2c(cc1C1OCC3C(c4ccc5c(c4)OCO5)OCC13)OCO2` (stereo not drawn) [episesamin, 2,6-bis-(3,4-methylenedioxyphenyl)-trans-3,7-dioxabicyclo[3.3.0]octane] as the compound, how does the “bioavailability in hepatocytes compared with sesamin” value read?
A: The value was “higher”.
